≈ marks a conversion by molar mass, not a printed value. Positions of bridges follow the written chain, without caps; N, C: chain ends. Non-standard residues stand in square brackets, D forms with d. Residues, ends and D or L forms follow the SMILES beside them. S5 = C=CCCC[C@](C)(N)C(=O)O; Dab = NCC[C@H](N)C(=O)O; Dap = NC[C@H](N)C(=O)O
Key:
A. baumannii = type: cell-based, Acinetobacter baumannii
Procedure: (§1) Antimicrobial Activity Assay: The following microbroth dilution protocol was adapted from CLSI to determine the minimum inhibitory concentration (MIC) of StAMPs. Briefly, Mueller-Hinton broth (MHB) or cation-adjusted Mueller-Hinton broth (MHB II) was prepared and autoclaved. Then, a colony of bacterial cells was picked and grown overnight in broth at 37° C. and then diluted and allowed to grow again for 3-4 hours. Serial dilutions of peptide stocks in water (10 μl) were prepared using clear round-bottom polypropylene 96-well plates. Then 90 μl of bacteria in broth was added to give a final inoculum of 5×10^5 CFU/ml. The plates were then covered with porous tape to reduce evaporation and incubated for 20-24 hours at 37° C. The MIC was the minimum peptide concentration at which no visible bacterial growth was observed.
(§2) Renal toxicity was measured after 90 minutes of incubation, while liver toxicity was measured after 48 hours of incubation with StAMPs. N/A=not tested. The following apply to all peptides (i.e., StAMPs) listed in Tables A-C: Crosslinks (X^1—X^2 and X^3—X^4): (alk); N-terminus: —NH2; C-terminus: amidated with —NH2; counterion: Cl^−. The following apply to all peptides (i.e., StAMPs) listed in Table D: Crosslinks (X^1—X^2 and X^3—X^4): (alk); N-terminus: —NH2; C-terminus: as shown in table; counterion: Cl^−.

K. pneumoniae = type: cell-based, Klebsiella pneumoniae
Procedure: as §1, §2

P. aeruginosa = type: cell-based, Pseudomonas aeruginosa
Procedure: as §1, §2
StAMP Micelle Formulation: DSPE-MPEG(2000) was suspended in buffered saline at 50-100 mg/mL overnight. StAMP stock solutions at 5-20 mg/mL in buffered saline were prepared and equal volumes of micelle and StAMP stock solution were mixed at the desired StAMP:Lipid ratio. Suspensions were allowed to sit for 5-10 minutes at room temperature before being used in in vitro and in vivo assays. […]

E. coli = type: cell-based, Escherichia coli
Procedure: as §1, §2

in vitro = type: cell-based; conditions: human, Inhibitory Concentration at 50% Cytotoxicity (IC50) Human Liver Cells (HepG2)
Procedure: Cell culture: RPTEC were maintained in MEM media supplemented with growth factors. HEPG2 cell line was maintained in Eagle's Minimum Essential Medium (EMEM) supplemented with fetal bovine serum to a final concentration of 10%.
48 hours cytotoxicity assay: Cells were plated in a 96-well format, and after 4 hour incubation to allow attachment, serial dilutions of StAMPs from a 5 mg/mL water stock, or vehicle, were then added to the cells in a final volume of 100 μl. After incubating at 37° C. for 48 hours, 100 μl of CellTiter-Glo® reagent was added to the cells, and the plates were incubated 10 minutes at room temperature. Luminescence was then measured on a microplate reader.
as §2

S. aureus = type: cell-based, Staphylococcus aureus
Procedure: as §1, §2

Row | Compound | Minimum Inhibitory Concentration (MIC) A. baumannii (A. baumannii) [µg/mL] | Minimum Inhibitory Concentration (MIC) K. pneumoniae (K. pneumoniae) [µg/mL] | Minimum Inhibitory Concentration (MIC) P. aeruginosa (P. aeruginosa) [µg/mL] | Minimum Inhibitory Concentration (MIC) E. coli (E. coli) [µg/mL] | IC50 at 48 hours (in vitro) [µg/mL] | Minimum Inhibitory Concentration (MIC) S. aureus (S. aureus) [µg/mL]
1 | CC(C)[C@@H]1NC(=O)[C@@](C)(NC(=O)[C@H](C)NC(=O)[C@H](CCCCN)NC(=O)CNC(=O)[C@H](Cc2ccccc2)NC(=O)[C@H](CCCCN)NC(=O)[C@H](CCCCN)NC(=O)[C@H](CCN)NC(=O)[C@H](CCCCN)NC(=O)[C@H](CCCCN)NC(=O)[C@]2(C)CCCC=CCCC[C@](C)(NC(=O)CN)C(=O)NCC(=O)N[C@@H](CCCCN)C(=O)N[C@@H](Cc3ccccc3)C(=O)N2)CCCC=CCCC[C@@](C)(C(=O)N[C@@H](C)C(=O)N[C@@H](CCCCN)C(=O)N[C@@H](CCCCN)C(N)=O)NC(=O)[C@H](CCC(=O)O)NC(=O)CNC1=O [compound 42] (H-G[S5]GKF[S5]KK[Dab]KKFGKA[S5]VGE[S5]AKK-NH2; staple 2-6, 16-20) | 2 | 16 | 8 | 4 | 194 (≈ 76.5 µM) | 32
2 | CC(C)[C@@H]1NC(=O)[C@@](C)(NC(=O)[C@H](C)NC(=O)[C@H](CCCCN)NC(=O)CNC(=O)[C@H](Cc2ccccc2)NC(=O)[C@H](CCCCN)NC(=O)[C@H](CCN)NC(=O)[C@H](CCCCN)NC(=O)[C@H](CCCCN)NC(=O)[C@H](CCCCN)NC(=O)[C@]2(C)CCCC=CCCC[C@](C)(NC(=O)CN)C(=O)NCC(=O)N[C@@H](CCCCN)C(=O)N[C@@H](Cc3ccccc3)C(=O)N2)CCCC=CCCC[C@@](C)(C(=O)N[C@@H](C)C(=O)N[C@@H](CCCCN)C(=O)N[C@@H](CCCCN)C(N)=O)NC(=O)[C@H](CCC(=O)O)NC(=O)CNC1=O [compound 43] (H-G[S5]GKF[S5]KKK[Dab]KFGKA[S5]VGE[S5]AKK-NH2; staple 2-6, 16-20) | 2 | 8 | 4 | 4 | 127 (≈ 50.1 µM) | 32
3 | CC(C)[C@@H]1NC(=O)[C@@](C)(NC(=O)[C@H](C)NC(=O)[C@H](CCCCN)NC(=O)CNC(=O)[C@H](Cc2ccccc2)NC(=O)[C@H](CCCCN)NC(=O)[C@H](CCCCN)NC(=O)[C@H](CCCCN)NC(=O)[C@H](CCCCN)NC(=O)[C@H](CCCCN)NC(=O)[C@]2(C)CCCC=CCCC[C@](C)(NC(=O)CN)C(=O)NCC(=O)N[C@@H](CCCCN)C(=O)N[C@@H](Cc3ccccc3)C(=O)N2)CCCC=CCCC[C@@](C)(C(=O)N[C@@H](C)C(=O)N[C@@H](CCN)C(=O)N[C@@H](CCCCN)C(N)=O)NC(=O)[C@H](CCC(=O)O)NC(=O)CNC1=O [compound 44] (H-G[S5]GKF[S5]KKKKKFGKA[S5]VGE[S5]A[Dab]K-NH2; staple 2-6, 16-20) | 2 | 6 | 4 | 2 | 87 (≈ 34.3 µM) | 32
4 | CC(C)[C@@H]1NC(=O)[C@@](C)(NC(=O)[C@H](C)NC(=O)[C@H](CCCCN)NC(=O)CNC(=O)[C@H](Cc2ccccc2)NC(=O)[C@H](CCCCN)NC(=O)[C@H](CCCCN)NC(=O)[C@H](CCCCN)NC(=O)[C@H](CCCCN)NC(=O)[C@H](CCCCN)NC(=O)[C@]2(C)CCCC=CCCC[C@](C)(NC(=O)CN)C(=O)NCC(=O)N[C@@H](CN)C(=O)N[C@@H](Cc3ccccc3)C(=O)N2)CCCC=CCCC[C@@](C)(C(=O)N[C@@H](C)C(=O)N[C@@H](CCCCN)C(=O)N[C@@H](CCCCN)C(N)=O)NC(=O)[C@H](CCC(=O)O)NC(=O)CNC1=O [compound 45] (H-G[S5]G[Dap]F[S5]KKKKKFGKA[S5]VGE[S5]AKK-NH2; staple 2-6, 16-20) | 2 | 4 | 4 | 2 | 104 (≈ 41.2 µM) | >64
5 | CC(C)[C@@H]1NC(=O)[C@@](C)(NC(=O)[C@H](C)NC(=O)[C@H](CCCCN)NC(=O)CNC(=O)[C@H](Cc2ccccc2)NC(=O)[C@H](CCCCN)NC(=O)[C@H](CCCCN)NC(=O)[C@H](CCCCN)NC(=O)[C@H](CCCCN)NC(=O)[C@H](CN)NC(=O)[C@]2(C)CCCC=CCCC[C@](C)(NC(=O)CN)C(=O)NCC(=O)N[C@@H](CCCCN)C(=O)N[C@@H](Cc3ccccc3)C(=O)N2)CCCC=CCCC[C@@](C)(C(=O)N[C@@H](C)C(=O)N[C@@H](CCCCN)C(=O)N[C@@H](CCCCN)C(N)=O)NC(=O)[C@H](CCC(=O)O)NC(=O)CNC1=O [compound 46] (H-G[S5]GKF[S5][Dap]KKKKFGKA[S5]VGE[S5]AKK-NH2; staple 2-6, 16-20) | 2 | 8 | 4 | 2 | 299 (≈ 119 µM) | 64
6 | CC(C)[C@@H]1NC(=O)[C@@](C)(NC(=O)[C@H](C)NC(=O)[C@H](CCCCN)NC(=O)CNC(=O)[C@H](Cc2ccccc2)NC(=O)[C@H](CCCCN)NC(=O)[C@H](CCCCN)NC(=O)[C@H](CCCCN)NC(=O)[C@H](CCCCN)NC(=O)[C@H](CCCCN)NC(=O)[C@]2(C)CCCC=CCCC[C@](C)(NC(=O)CN)C(=O)NCC(=O)N[C@@H](CCCCN)C(=O)N[C@@H](Cc3ccccc3)C(=O)N2)CCCC=CCCC[C@@](C)(C(=O)N[C@@H](C)C(=O)N[C@@H](CCCCN)C(=O)N[C@@H](CCCCN)C(=O)NCC(=O)N[C@@H](CCC(=O)O)C(N)=O)NC(=O)[C@H](CCC(=O)O)NC(=O)CNC1=O [compound 53] (H-G[S5]GKF[S5]KKKKKFGKA[S5]VGE[S5]AKKGE-NH2; staple 2-6, 16-20) | 4 | 32 | 16 | 8 | 211 (≈ 76.7 µM) | >64
7 | CC(C)[C@@H]1NC(=O)[C@@](C)(NC(=O)[C@H](C)NC(=O)[C@H](CCCCN)NC(=O)CNC(=O)[C@H](Cc2ccccc2)NC(=O)[C@H](CCCCN)NC(=O)[C@H](CCCCN)NC(=O)[C@H](CCCCN)NC(=O)[C@H](CCCCN)NC(=O)[C@H](CCCCN)NC(=O)[C@]2(C)CCCC=CCCC[C@](C)(NC(=O)CN)C(=O)NCC(=O)N[C@@H](CCCCN)C(=O)N[C@@H](Cc3ccccc3)C(=O)N2)CCCC=CCCC[C@@](C)(C(=O)N[C@@H](C)C(=O)N[C@@H](CCCCN)C(=O)N[C@@H](CCCCN)C(=O)NCC(=O)NCC(=O)NCC(=O)N[C@@H](CCC(=O)O)C(N)=O)NC(=O)[C@H](CCC(=O)O)NC(=O)CNC1=O [compound 54] (H-G[S5]GKF[S5]KKKKKFGKA[S5]VGE[S5]AKKGGGE-NH2; staple 2-6, 16-20) | 4 | 32 | 8 | 8 | 262 (≈ 91.5 µM) | >64
8 | CC(C)[C@@H]1NC(=O)[C@@](C)(NC(=O)[C@H](C)NC(=O)[C@H](CCCCN)NC(=O)CNC(=O)[C@H](Cc2ccccc2)NC(=O)[C@H](CCCCN)NC(=O)[C@H](CCCCN)NC(=O)[C@H](CCCCN)NC(=O)[C@H](CCCCN)NC(=O)[C@H](CCCCN)NC(=O)[C@]2(C)CCCC=CCCC[C@](C)(NC(=O)CN)C(=O)NCC(=O)N[C@@H](CCCCN)C(=O)N[C@@H](Cc3ccccc3)C(=O)N2)CCCC=CCCC[C@@](C)(C(=O)N[C@@H](C)C(=O)N[C@@H](CCCCN)C(=O)N[C@@H](CCCCN)C(=O)NCC(=O)NCC(=O)N[C@@H](CCC(=O)O)C(=O)N[C@@H](CCC(=O)O)C(N)=O)NC(=O)[C@H](CCC(=O)O)NC(=O)CNC1=O [compound 55] (H-G[S5]GKF[S5]KKKKKFGKA[S5]VGE[S5]AKKGGEE-NH2; staple 2-6, 16-20) | 8 | 64 | 16 | 16 | 207 (≈ 70.5 µM) | >64

Reference: patent publication US20240174723A1, “STAPLED ANTIMICROBIAL PEPTIDES (STAMPS) AND USES THEREOF” (Lytica Therapeutics, Inc., priority 2021, published 2024)
